Experimental data reported in patent publication US12371402B2, “Mitochondrial activity inhibitors targeting tumoral metabolism” (CENTRE LEON BERARD, priority 2018, dated 2025).

Columns and labels:
[1] = test system: RL follicular lymphoma cells; experiment: WST-1 cell viability test, RL follicular lymphoma cells; type: cell-based; details: Homo sapiens, 24 hours incubation
Text: (§1) RL cells (from ATCC, CRL-2261), SUDHL-4 cells (from ATCC, CRL-2957), GRANTA cells, BJAB Burkitt lymphoma cells, SUDHL4 DLBCL lymphoma cells, REC-1 Mantle lymphoma cells, RL follicular lymphoma cells, MTA NK/T lymphoma cells, HUT-78 Sesary T lymphoma cells, Karpas-384 gamma/delta PTCL lymphoma cells and SR-786 ALCL/Alk+ lymphoma Wild type/rescue MEF_LKB1+/+(mouse embryonic fibroblasts) cells were taken as a control; and mutated MEF_LKB−/− cells in which LKB1 gene was invalidated (Bardeesy et al., 2002). All cells were grown in flasks in RPMI 1640 Glutamax medium 11 mM Glucose supplemented with 10% fetal bovine serum and 1% penicillin-streptomycin medium supplemented with 10% fetal bovine serum and 1% penicillin-streptomycin. Cells were maintained at a constant temperature of 37° C. in a humidified atmosphere containing 5% CO2/95% air.
(§2) Drugs (compound 1 and Metformin) were initially diluted in DMSO (=vehicle dimethylsulfoxide). […] Lymphoma cells in exponential phase of growth were counted and assessed for more than 95% viability by trypan blue coloration. […] The formazan dye produced by viable cells can be quantified by measuring the absorbance at 440 nm. Cell viability was assessed comparing wells containing drugs to those with vehicle only. […]

[2] = test system: Karpas-384 gamma/delta PTCL lymphoma cells; experiment: WST-1 cell viability test, Karpas-384 lymphoma cells; type: cell-based; details: Homo sapiens, 24 hours incubation
Text: as §1, §2

[3] = test system: Human B lymphoma and T lymphoma cell lines; experiment: WST-1 cell viability test, panel of human B and T lymphoma cell lines; type: cell-based
Text: as §1, §2

[4] = test system: INS-1 cells; experiment: WST-1 cell viability test, pancreatic neuroendocrine tumor cell line INS-1; type: cell-based
Description: (§3) Drugs (compound 1 and Metformin) were initially diluted in DMSO (=vehicle dimethylsulfoxide). Appropriate dilutions of these stocks were performed in DMSO and finally in culture medium; 15 μl of each dilution was distributed in 4 wells (replicates) according to the plate schedule to obtain final drug concentrations (0.1 μM to 1 mM for metformin and 1 μM to 200 μM for compound 1) after cells were added. Control wells with vehicle at the appropriate dilution only were included. Lymphoma cells in exponential phase of growth were counted and assessed for more than 95% viability by trypan blue coloration. […] Adherent cells (MEFs cells and INS-1 cells were seeded the day before to obtain 80% confluence the day of experiment. Culture medium was renewed with 35 μL fresh medium and 15 μl of appropriated drug dilution was then added. These plates were incubated 24 hours at 37° C./5% CO2. Then addition of 5 μl of WST-1 cell proliferation reagent (Roche, #11644807001) was performed, before incubation 2-4 hours at 37° C. and lecture of the absorbance following the manufacturer instructions. WST-1 assays are non-radioactive, rapid and more sensitive than MTT, XTT, or MTS-based assays. The WST-1 assay is based on the cleavage of the tetrazolium salt WST-1 to formazan by cellular mitochondrial dehydrogenases. […] Cell viability was assessed comparing wells containing drugs to those with vehicle only. […]

[5] = test system: MEF_LKB-/- and MEF_LKB1+/+ cells; experiment: WST-1 cell viability test, MEF cells with or without the LKB1 gene; type: cell-based, mouse; details: MEF_LKB-/- versus MEF_LKB1+/+, 24 hours
Description: as §3

[6] = test system: Follicular Lymphoma (RL model) xenograft; experiment: CDX xenograft tumor volume, RL model; type: in vivo, female SCID mice; details: 50 mg/kg intraperitoneal five times a week, versus DMSO control
Text: (§4) CDX (cell derived xenografts) models of human NHL were used: Follicular Lymphoma (RL model), Diffuse Large B Cell Lymphoma (SUDHL-4 model). Cells were subcutaneously implanted; since the tumor growth was not homogeneous, it was decided to implant surgically 2×2 mm pieces from these initial tumours. Animals were female SCID mice.
(§5) Mice were randomized when the tumors reach a mean volume of 100 mm^3 for the 2 groups (control and compound 1). […] The endpoints are defined by animal ethics as a tumor diameter of >18 mm, significant weight loss or alteration of animal well-being. In order to assess the effectiveness of the compound 1 on tumorigenesis, tumor volume was measured three times a week. The sizes of the primary tumors were measured using calipers and the tumor volume (TV) was extrapolated to a sphere using the formula TV=4/3 π×r3, by calculating the mean radius from the two measurements. The median and standard deviation were also calculated for each group. Median is preferred to mean in order to exclude the extreme values.
(§6) COMPOUND 1 was administered by intraperitoneal injection five times a week, at dose 50 mg/kg. Control DMSO was administered also by intraperitoneal injection five times a week. […]
(§7) Unless specified, the non-parametric Mann-Whitney test was performed on the tumor volume values (mm^3) measured on the day of the first euthanasia.

[7] = test system: Diffuse Large B Cell Lymphoma (SUDHL-4 model) xenograft; experiment: CDX xenograft tumor volume, SUDHL-4 model; type: in vivo, female SCID mice; details: SUDHL-4 xenograft, 50 mg/kg intraperitoneal five times a week, versus DMSO control
Text: as §4, §5, §6, §7

[8] = test system: mitochondrial ECT complex1; experiment: Oxygen consumption in permeabilized tumoral cells (RL, SUDHL4, GRANTA); type: cell-based, human
Description: Human Cell lines: RL cells (from ATCC, CRL-2261) and SU-DHL-4 cells (from ATCC, CRL-2957) were grown in flasks in RPMI 1640—Glutamax medium supplemented with 10% fetal bovine serum and 1% penicillin-streptomycin. GRANTA cells were grown in flasks in DMEM-Glutamax medium supplemented with 10% fetal bovine serum and 1% penicillin-streptomycin. Cells were maintained at a constant temperature of 37° C. in a humidified atmosphere containing 5% CO2/95% air.
(§8) Oxygen consumption was measured in a thermostatically controlled oxigraph vessel equipped with a Clarck oxygen electrode at 37° C. (Strathkelvin MS200A system).
(§9) Experiment was started by the addition of 100 μg/ml digitonine and either 5 mM Glutamate plus 2.5 mM Malate or 5 mM Succinate plus 1 μM rotenone, followed by the addition of 500 μM ADP (state 3) then 2 μg/ml Oligomycin (state 4).
Cell lines: RL, SU-DHL-4 or GRANTA cells were centrifuged and counted. A cell suspension (100 million of trypan blue negative cells per ml) was prepared in respiration buffer. 10 million cells were added in the oxigraph chamber containing respiration buffer. The final volume was 1 ml. compound 1 (0.5 to 20 μM) was added to permeabilized cells after the addition of ADP or oligomycin.
(§10) All measures were realized 2 min after drugs addition.

[9] = test system: mitochondrial ECT complex1; experiment: Oxygen consumption in permeabilized fresh hepatocytes; type: cell-based; details: permeabilized rat liver hepatocytes, state 3, 2 min after addition
Description: Rat liver hepatocytes were isolated from overnight-starved animals by enzymatic digestion with collagenase according to the method of Berry and Friend modified by Groen.
Primary hepatocytes were directly used after isolation (for metabolic analyses). Cells were maintained at a constant temperature of 37° C. in a humidified atmosphere containing 5% CO2/95% air. The medium was removed after 4 h (time necessary for cell attachment) and replaced by fresh medium.
as §8, §9
Primary hepatocytes: 5.105 fresh hepatocytes were added in the oxigraph chamber containing respiration buffer (KET buffer: KCl 125 mM, EGTA 1 mM, Tris 20 mM) supplemented with 0.1% BSA, 5 mM inorganic phosphate (Pi). The final volume was 1 ml. Oxygen consumption rate was measured before and after the addition of compound 1 (1, 20, 50 or 100 μM) either in resting (state 2) or phosphorylating (state 3) condition.
as §10

[10] = test system: panel of hematological cell lines; experiment: Live cell number by flow cytometry, panel of hematological cell lines; type: cell-based, human; details: 10 μM, 48 hours
Description: (§11) All the cells were routinely maintained in RPMI 1640 culture medium 11 mM glucose supplemented with 10% FCS. The day of experiment, cells (80 to 100.10^3/well) in exponential phase of growth were seeded in 96 wells plates, in 100 μl of culture medium final volume, in absence (not treated: NT) or presence of indicated compounds concentrations. Stocks of compounds were 10 mM in DMSO, and final DMSO concentration in assay was 0.1%. The control not treated (NT) assays contains 0.1% DMSO. After 48h of incubation at 37° C., cells were immediately analyzed by flow cytometry. Apoptosis was detected using Annexin V/PI staining protocol, according to manufacturer indications.
(§12) Compounds 2 to 4 (named respectively C2 to C4 in the figures) were tested and compared with IACS-010759 (IACS), an OXPHOS inhibitor in clinical phase 1 trial which is assessed in parallel (Molina et al., 2018).

[11] = test system: Karpas-422 DLBCL lymphoma; experiment: Apoptosis by Annexin V/PI flow cytometry, Karpas-422; type: cell-based, human; details: Karpas-422, 10 μM, 48 hours
Description: as §11, §12

| Compound | IC50 [1] [µM] | IC50 [2] [µM] | IC50 compared with IC50 of metformin ([3]; all lymphomas, 24 hours incubation, WST-1) | sensitivity of lymphoma cell lines (viability) ([3]; human B and T lymphoma, 24 hours, 1 μM to 200 μM) | IC50 compared with IC50 of metformin ([4]; 24 hours incubation) | IC50 ([4]; Rattus norvegicus, INS1, 24 hours incubation) [µM] | toxicity on cells with or without LKB1 (viability) [5] | tumor growth (tumor volume) [6] | tumor growth (tumor volume) [7] | mitochondrial oxygen consumption ([8]; permeabilized RL, SUDHL4 and GRANTA cells, state 3, 2 min after addition) | dose inhibiting oxygen consumption, tumoral cells versus fresh hepatocytes ([8]; permeabilized tumoral cells (RL, SUDHL4, GRANTA) compared with permeabilized fresh hepatocytes) | mitochondrial oxygen consumption [9] | number of living cells [10] | apoptosis (apoptotic cells/cell decrease) [11] |
| --- | --- | --- | --- | --- | --- | --- | --- | --- | --- | --- | --- | --- | --- | --- |
| N=C(Nc1ccccc1)SCCCCCCSC(=N)Nc1ccccc1 [compound 1] | < 10 | < 10 | far below IC50 of metformin | sensible to compound 1 | far below IC50 of metformin | < 10 | more toxic for the cells that do not express the LKB1 protein | reduces tumor growth | reduces tumor growth | inhibits mitochondrial oxygen consumption in all cells tested | about 25 times smaller | inhibits mitochondrial oxygen consumption in all cells tested | – | – |
| N=C(Nc1ccc2ccccc2c1)SCCCCCCSC(=N)Nc1ccc2ccccc2c1 [compound 4] | – | – | – | – | – | – | – | – | – | – | – | – | induces a differential decrease in the number of living cells | can induce apoptosis |
